Measured values reported in patent publication US6555565B2, “Apoptosis inhibitor” (Takeda Chemical Industries, Ltd., priority 1997, dated 2003).

tested on: mouse fibroblast (L929 cells, IFO 50409); assay: TNF-α-induced apoptosis (cell death) of L929 cells, crystal violet staining of living cells; type: cell-based; conditions: test compound final concentration 1 μM, 72 hours cultivation, relative to dexamethasone (final concentration 1.1 μM) = 100
Procedure: Apoptosis (cell death) was induced by adding TNF-α to cells. The inhibitory activity of a test compound to this apoptosis was determined by using known dexamethasone having an apoptosis inhibitory activity as the standard.
Namely, 25 μl of a culture medium (PRMI-1640, produced by Nikken Seibutsu Igaku Kenkyusho, Japan) (containing 10 weight % of fetal bovine serum) was added to each well of a 96-well microplate. Then, added was 2 μl of a solution prepared by 20 volume fold dilution of dimethylformamide (in the case of Compound No. 16) or dimethylsulfoxide (in the case of Compound Nos. 2, 4, 6, 8, 13) solution of a test compound (concentration of the test compound: 1 mM) with the above culture medium.
Subsequently, 25 μl of a solution prepared by dissolving TNF-α (Genzyme, USA)(40 ng/ml culture medium) in the above culture medium, and 50 μl of a suspension (2×10^5 cells/ml) prepared by suspending mouse fibroblast (L929 cells, IFO 50409) in the above culture medium were added, and then cells were cultivated for 72 hours at 37° C. in the presence of 5% carbon dioxide in air. The final concentration of the test compound during cultivation was 1 μM.
After cultivation, the culture medium was removed from the wells by aspiration, and 50 μl of a 5% (w/v) crystal violet/70% (v/v) methanol solution was added to each well to pigment the living cells. Then the wells were washed and dried. The apoptosis inhibitory activity of the test compound was obtained by determining the optical density by using an absorptiometer [Microplate Reader Model 450, produced by Bio-Rad] at the wavelength of 570 nm.
While, the apoptosis inhibitory activity of dexamethasone was obtained in the same manner as above except that the above test compound (final concentration: 1 μM) was replaced by dexamethasone (final concentration: 1.1 μM).
Then, the apoptosis inhibitory activity of each test compounds (final concentration: 1 μM) was calculated when the apoptosis inhibitory activity of dexamethasone (final concentration: 1.1 μM) was 100.

SMILES | Apoptosis inhibitory activity (%)
Cc1oc(-c2ccc3ccccc3c2)nc1CCOc1ccc(CCCC2OC(=O)NC2=O)cc1 (stereo not drawn) [Compound No. 2] | 70
COc1cc(CCCC2OC(=O)NC2=O)ccc1OCc1nc(-c2ccco2)oc1C (stereo not drawn) [Compound No. 4, 5-[3-[4-[2-(2-furyl)-5-methyl-4-oxazoly]methoxy]-3-methoxyphenyllpropyl]-2,4-oxazolidinedione] | 74
Cc1oc(-c2ccccc2)nc1COc1ccc(CCCC2OC(=O)NC2=O)cc1 (stereo not drawn) [Compound No. 6, 5-[3-[4-(5-methyl-2-phenyl-4-oxazolylmethoxy]phenyl]propyl]-2,4-oxazolidinedione] | 70
Cn1nc(CCOc2ccc(CC3SC(=O)NC3=O)cc2)nc1-c1ccccc1 (stereo not drawn) [Compound No. 8, 5-[4-[2-(1-methyl-5-phenyl-1,2,4-triazol-3-yl)ethoxy]benzyl]-2,4-thiazolidinedione] | 70
CN(CCOc1ccc(CC2SC(=O)NC2=O)cc1)c1ccccn1 (stereo not drawn) [Compound No. 13, 5-[[4-[2-(methyl-2-pyridylamino)ethoxy]phenyl]methyl]-2,4-thiazolidinedione, reference compound] | 92
COc1cc(CCCC2OC(=O)NC2=O)ccc1OC(C)c1nc(-c2ccccc2)oc1C (stereo not drawn) [Compound No. 16, 5-[3-[3-methoxy-4-[1-(5-methyl-2-phenyl-4-oxazolyl)ethoxy]phenyl]propyl]-2,4-oxazolidinedione] | 71
